Results: patent publication US9695155B2, “Herbicidal substituted pyrimidinyloxy benzene compounds” (E. I. DU PONT DE NEMOURS AND COMPANY, priority 2013, dated 2017)

Assays:
giant foxtail [1] = assay: Test A preemergence; assay type: in vivo, Setaria faberii; settings: for Plant response rating, Foxtail, Giant: 0 to 100 scale where 0 is no effect and 100 is complete control
In short: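 Pre- and postemergence greenhouse screen. Soil: loam + sand. Spray carrier: solvent mixture, non-phytotoxic, with surfactant. Post timing at 1–2 leaves, height 2–10 cm. Readout: visual injury on a 0–100 scale roughly 10 days after application, untreated plants as reference.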

wild oat = assay: Test C postemergence; assay type: in vivo, Avena fatua; settings: for Oat, Wild plant response rating: 31 g ai/ha, 13 to 15 days
In short: (§1)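 Rated visually on 0–100 (100 = complete control) after 13–15 days under glass. Treatments went onto freshly seeded loam/sand soil or onto emerged plants at the 1- to 4-leaf stage, using a surfactant-containing solvent formulation.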

Italian ryegrass = assay: Test C postemergence; assay type: in vivo, Lolium multiflorum; settings: for Ryegrass, Italian plant response rating: 31 g ai/ha, 13 to 15 days
In short: as §1

johnsongrass = assay: Test C postemergence; assay type: in vivo, Sorghum halepense; settings: for Johnsongrass plant response rating: 31 g ai/ha, 13 to 15 days
In short: as §1

corn = assay: Test C postemergence; assay type: in vivo, Zea mays
In short: as §1

chickweed = assay: Test C postemergence; assay type: in vivo, Stellaria media
In short: as §1

blackgrass = assay: Test C postemergence; assay type: in vivo, Alopecurus myosuroides
In short: as §1

large (Lg) crabgrass = assay: Test C postemergence; assay type: in vivo, Digitaria sanguinalis
In short: as §1

giant foxtail [2] = assay: Test C postemergence; assay type: in vivo, Setaria faberii
In short: as §1

yellow nutsedge = assay: Test C postemergence; assay type: in vivo, Cyperus esculentus; settings: for Nutsedge, Yellow plant response rating: 31 g ai/ha, 13 to 15 days
In short: as §1

waterhemp = assay: Test C postemergence; assay type: in vivo, Amaranthus rudis; settings: for Waterhemp plant response rating: 31 g ai/ha, 13 to 15 days
In short: as §1

[3] = 8 g ai/ha, postemergence, 0 is no effect, 100 is complete control
[4] = 16 g ai/ha, postemergence, 0 is no effect, 100 is complete control
[5] = postemergence, visual rating, scale 0 to 100 (0 no effect, 100 complete control)
[6] = 4 g ai/ha, postemergence, 0 is no effect, 100 is complete control
[7] = 31 g ai/ha, postemergence, visual rating, scale 0 to 100 (0 no effect, 100 complete control), 13 to 15 days

FCc1cccc(Oc2ncc(F)cn2)c1-n1cc(I)cn1 [Compound 152]
30: Chickweed plant response rating (chickweed; [7])
5: Oat, Wild plant response rating (wild oat; [5]) | Plant response rating (0 to 100), Johnsongrass (johnsongrass; [4]) | Johnsongrass plant response rating (johnsongrass; [5]) | Plant response rating (0 to 100), Corn (corn; [4]) | Corn plant response rating (corn; [7]) | Plant response rating (0 to 100), Chickweed (chickweed; [6]) | Plant response rating (0 to 100), Chickweed (chickweed; [3]) | Plant response rating (0 to 100), Crabgrass, Large (large (Lg) crabgrass; [3]) | Plant response rating (0 to 100), Crabgrass, Large (large (Lg) crabgrass; [4]) | Crabgrass, Large plant response rating (large (Lg) crabgrass; [7]) | Plant response rating (0 to 100), Foxtail, Giant (giant foxtail [2]; [4]) | Foxtail, Giant plant response rating (giant foxtail [2]; [7])
10: Plant response rating, Foxtail, Giant (giant foxtail [1]; 31 g ai/ha, visual, approximately 10 days) | Plant response rating (0 to 100), Chickweed (chickweed; [4])
15: Plant response rating (0 to 100), Waterhemp (waterhemp; [3])
100: Plant response rating, Foxtail, Giant (giant foxtail [1]; 125 g ai/ha)
60: Waterhemp plant response rating (waterhemp; [5])
0: Plant response rating (0 to 100), Oat, Wild (wild oat; [3]) | Plant response rating (0 to 100), Oat, Wild (wild oat; [4]) | Plant response rating (0 to 100), Ryegrass, Italian (Italian ryegrass; [3]) | Plant response rating (0 to 100), Ryegrass, Italian (Italian ryegrass; [4]) | Ryegrass, Italian plant response rating (Italian ryegrass; [5]) | Plant response rating (0 to 100), Johnsongrass (johnsongrass; [3]) | Plant response rating (0 to 100), Corn (corn; [6]) | Plant response rating (0 to 100), Corn (corn; [3]) | Plant response rating (0 to 100), Blackgrass (blackgrass; [6]) | Plant response rating (0 to 100), Blackgrass (blackgrass; [3]) | Plant response rating (0 to 100), Blackgrass (blackgrass; [4]) | Blackgrass plant response rating (blackgrass; [7]) | Plant response rating (0 to 100), Foxtail, Giant (giant foxtail [2]; [3]) | Plant response rating (0 to 100), Nutsedge, Yellow (yellow nutsedge; [3]) | Plant response rating (0 to 100), Nutsedge, Yellow (yellow nutsedge; [4]) | Nutsedge, Yellow plant response rating (yellow nutsedge; [5])
45: Plant response rating (0 to 100), Waterhemp (waterhemp; [4])

Clc1cnc(Oc2ccccc2-n2cc(C3CC3)nn2)nc1 [Compound 160, 5-chloro-2-[2-(4-cyclopropyl-1H-1,2,3-triazol-1-yl)phenoxy]pyrimidine]
85%: pest or weed control at 125 g/ha (waterhemp; Amaranthus tuberculatus, post-emergence, 125 g ai/ha, postemergence, visual rating, scale 0 to 100 (0 no effect, 100 complete control), read-out: Plant response rating, Waterhemp)
10%: pest or weed control at 125 g/ha (large (Lg) crabgrass; Digitaria sanguinalis, post-emergence, 125 g ai/ha, postemergence, visual rating, scale 0 to 100 (0 no effect, 100 complete control), read-out: Plant response rating, Crabgrass, Large) | pest or weed control at 125 g/ha (giant foxtail [2]; Setaria faberi, post-emergence, 125 g ai/ha, postemergence, visual rating, scale 0 to 100 (0 no effect, 100 complete control), read-out: Plant response rating, Foxtail, Giant)
5: Nutsedge, Yellow plant response rating (yellow nutsedge; [5])
70%: pest or weed control at 125 g/ha (chickweed; Stellaria media, post-emergence, 125 g ai/ha, postemergence, visual rating, scale 0 to 100 (0 no effect, 100 complete control), read-out: Plant response rating, Chickweed) | pest or weed control at 16 g/ha (waterhemp; Amaranthus tuberculatus, post-emergence, 16 g ai/ha, postemergence, 0 is no effect, 100 is complete control, read-out: Plant response rating (0 to 100), Waterhemp) | pest or weed control at 62 g/ha (waterhemp; Amaranthus tuberculatus, post-emergence, Postemergence, 62 g ai/ha, scale 0 to 100 (0 no effect, 100 complete control), read-out: Plant response rating, Waterhemp)
80%: pest or weed control at 62 g/ha (chickweed; Stellaria media, post-emergence, Postemergence, 62 g ai/ha, scale 0 to 100 (0 no effect, 100 complete control), read-out: Plant response rating, Chickweed)
15%: pest or weed control at 125 g/ha (blackgrass; Alopecurus myosuroides, post-emergence, 125 g ai/ha, postemergence, visual rating, scale 0 to 100 (0 no effect, 100 complete control), read-out: Plant response rating, Blackgrass)
100%: pest or weed control at 1000 g/ha (giant foxtail [1]; Setaria faberi, pre-emergence, 240 h, 1000 g ai/ha, 0 to 100 scale, 0 no effect, 100 complete control, approx. 10 days, read-out: Foxtail, Giant plant response rating)
35: Waterhemp plant response rating (waterhemp; [5])
55%: pest or weed control at 31 g/ha (chickweed; Stellaria media, post-emergence, 31 g ai/ha, postemergence, visual rating, scale 0 to 100 (0 no effect, 100 complete control), 13 to 15 days, read-out: Chickweed plant response rating)
0%: pest or weed control at 16 g/ha (wild oat; Avena fatua, post-emergence, 16 g ai/ha, postemergence, 0 is no effect, 100 is complete control, read-out: Plant response rating (0 to 100), Oat, Wild) | pest or weed control at 125 g/ha (wild oat; Avena fatua, post-emergence, 125 g ai/ha, postemergence, visual rating, scale 0 to 100 (0 no effect, 100 complete control), read-out: Plant response rating, Oat, Wild) | pest or weed control at 62 g/ha (wild oat; Avena fatua, post-emergence, Postemergence, 62 g ai/ha, scale 0 to 100 (0 no effect, 100 complete control), read-out: Plant response rating, Oat, Wild) | pest or weed control at 16 g/ha (Italian ryegrass; Lolium multiflorum, post-emergence, 16 g ai/ha, postemergence, 0 is no effect, 100 is complete control, read-out: Plant response rating (0 to 100), Ryegrass, Italian) | pest or weed control at 62 g/ha (Italian ryegrass; Lolium multiflorum, post-emergence, Postemergence, 62 g ai/ha, scale 0 to 100 (0 no effect, 100 complete control), read-out: Plant response rating, Ryegrass, Italian) | pest or weed control at 16 g/ha (johnsongrass; Sorghum halepense, post-emergence, 16 g ai/ha, postemergence, 0 is no effect, 100 is complete control, read-out: Plant response rating (0 to 100), Johnsongrass) | pest or weed control at 62 g/ha (johnsongrass; Sorghum halepense, post-emergence, Postemergence, 62 g ai/ha, scale 0 to 100 (0 no effect, 100 complete control), read-out: Plant response rating, Johnsongrass) | plant injury at 16 g/ha (corn; Zea mays, post-emergence, 16 g ai/ha, postemergence, 0 is no effect, 100 is complete control, read-out: Plant response rating (0 to 100), Corn) | pest or weed control at 16 g/ha (blackgrass; Alopecurus myosuroides, post-emergence, 16 g ai/ha, postemergence, 0 is no effect, 100 is complete control, read-out: Plant response rating (0 to 100), Blackgrass) | pest or weed control at 31 g/ha (blackgrass; Alopecurus myosuroides, post-emergence, 31 g ai/ha, postemergence, visual rating, scale 0 to 100 (0 no effect, 100 complete control), 13 to 15 days, read-out: Blackgrass plant response rating) | pest or weed control at 16 g/ha (giant foxtail [2]; Setaria faberi, post-emergence, 16 g ai/ha, postemergence, 0 is no effect, 100 is complete control, read-out: Plant response rating (0 to 100), Foxtail, Giant)
50%: pest or weed control at 16 g/ha (chickweed; Stellaria media, post-emergence, 16 g ai/ha, postemergence, 0 is no effect, 100 is complete control, read-out: Plant response rating (0 to 100), Chickweed)
0: Oat, Wild plant response rating (wild oat; [5]) | Ryegrass, Italian plant response rating (Italian ryegrass; [5]) | Johnsongrass plant response rating (johnsongrass; [5])
5%: pest or weed control at 125 g/ha (Italian ryegrass; Lolium multiflorum, post-emergence, 125 g ai/ha, postemergence, visual rating, scale 0 to 100 (0 no effect, 100 complete control), read-out: Plant response rating, Ryegrass, Italian) | pest or weed control at 125 g/ha (johnsongrass; Sorghum halepense, post-emergence, 125 g ai/ha, postemergence, visual rating, scale 0 to 100 (0 no effect, 100 complete control), read-out: Plant response rating, Johnsongrass) | plant injury at 31 g/ha (corn; Zea mays, post-emergence, 31 g ai/ha, postemergence, visual rating, scale 0 to 100 (0 no effect, 100 complete control), 13 to 15 days, read-out: Corn plant response rating) | Corn plant response rating (crop injury, 0 = no effect, 100 = complete kill) at 125 g/ha (corn; Zea mays, post-emergence, 125 g ai/ha, postemergence, visual rating, scale 0 to 100 (0 no effect, 100 complete control)) | Corn plant response rating (crop injury, 0 = no effect, 100 = complete kill) at 62 g/ha (corn; Zea mays, post-emergence, Postemergence, 62 g ai/ha, scale 0 to 100 (0 no effect, 100 complete control)) | pest or weed control at 62 g/ha (blackgrass; Alopecurus myosuroides, post-emergence, Postemergence, 62 g ai/ha, scale 0 to 100 (0 no effect, 100 complete control), read-out: Plant response rating, Blackgrass) | pest or weed control at 16 g/ha (large (Lg) crabgrass; Digitaria sanguinalis, post-emergence, 16 g ai/ha, postemergence, 0 is no effect, 100 is complete control, read-out: Plant response rating (0 to 100), Crabgrass, Large) | pest or weed control at 31 g/ha (large (Lg) crabgrass; Digitaria sanguinalis, post-emergence, 31 g ai/ha, postemergence, visual rating, scale 0 to 100 (0 no effect, 100 complete control), 13 to 15 days, read-out: Crabgrass, Large plant response rating) | pest or weed control at 62 g/ha (large (Lg) crabgrass; Digitaria sanguinalis, post-emergence, Postemergence, 62 g ai/ha, scale 0 to 100 (0 no effect, 100 complete control), read-out: Plant response rating, Crabgrass, Large) | pest or weed control at 31 g/ha (giant foxtail [2]; Setaria faberi, post-emergence, 31 g ai/ha, postemergence, visual rating, scale 0 to 100 (0 no effect, 100 complete control), 13 to 15 days, read-out: Foxtail, Giant plant response rating) | pest or weed control at 62 g/ha (giant foxtail [2]; Setaria faberi, post-emergence, Postemergence, 62 g ai/ha, scale 0 to 100 (0 no effect, 100 complete control), read-out: Plant response rating, Foxtail, Giant) | pest or weed control at 16 g/ha (yellow nutsedge; Cyperus, post-emergence, 16 g ai/ha, postemergence, 0 is no effect, 100 is complete control, read-out: Plant response rating (0 to 100), Nutsedge, Yellow) | pest or weed control at 125 g/ha (yellow nutsedge; Cyperus, post-emergence, 125 g ai/ha, postemergence, visual rating, scale 0 to 100 (0 no effect, 100 complete control), read-out: Plant response rating, Nutsedge, Yellow) | pest or weed control at 62 g/ha (yellow nutsedge; Cyperus, post-emergence, Postemergence, 62 g ai/ha, scale 0 to 100 (0 no effect, 100 complete control), read-out: Plant response rating, Nutsedge, Yellow)
